# Laboratory results: ChEMBL document CHEMBL1201862, “PubChem BioAssay data set” (2004)
#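 Growth conditions: 96-well plates. Treatment: test compound, 48 hours, 5 concentrations. Analysis: linear interpolation between bracketing concentrations; unreached endpoints set to highest concentration. GI50 = concentration required for 50% inhibition of growth.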 Activity calls are given as the source filed them. Cut-off read from the data, not from the text of the source: active = GI50 up to about 1.1 µM and inactive = higher.
# Key:
# Assay in all cases: NCI anticancer screen, dose series, 48 h
# DU-145 = tested on: DU-145
# A549 = tested on: A549
# DLD-1 = tested on: DLD-1
# M19-MEL = tested on: M19-MEL
# HOP-18 = tested on: HOP-18
# SNB-78 = tested on: SNB-78
# DMS-114 = tested on: DMS-114
Structure (SMILES),GI50 (DU-145),GI50 (A549),GI50 (DLD-1),GI50 (M19-MEL),GI50 (HOP-18),GI50 (SNB-78),GI50 (DMS-114)
Nc1nnc2ccc(Cl)cc2[n+]1[O-],> 100 µM (inactive),,,,,,
O=c1c(-c2ccccc2)c(SCCN2CCCCCC2)n(-c2ccccc2)c(=S)n1-c1ccccc1,23.6 µM (inactive),,,,,,
Cc1cccc(C(O)c2cccnc2)c1O (stereo unspecified),> 100 µM (inactive),> 100 µM (inactive),,,,,
CC1=CC[C@H](C)C(C)(C)C1/C=C/C(C)=C/CC[C@@]1(CO)[C@H](CCCO)/C(=C(/C)C=O)CC[C@]1(C)O (stereo partly specified),,0.877 µM (active),3.53 µM (inactive),17.2 µM (inactive),15.5 µM (inactive),13.2 µM (inactive),
CCOC(=O)C(OP(=O)(OCC)OCC)C(F)(F)F (stereo unspecified),> 100 µM (inactive),,,,,,
N#Cc1ccccc1NC(=O)C(=O)C(C(=O)c1ccccc1F)C1OC(=O)c2ccccc21 (stereo unspecified),,70.8 µM (inactive),46.8 µM (inactive),29.7 µM (inactive),,25.8 µM (inactive),35.5 µM (inactive)
CCOC(=O)C(C(=O)OCC)c1cc(-c2cc3ccccc3o2)oc(=O)c1C#N,,33.4 µM (inactive),,,16 µM (inactive),18 µM (inactive),26.7 µM (inactive)
Brc1ccccc1-c1ncc(-c2ccccc2)o1,32.1 µM (inactive),44.7 µM (inactive),,,,,
